From article PMC7367873, “Dissecting the sequence determinants for dephosphorylation by the catalytic subunits of phosphatases PP1 and PP2A” (Nature Communications, 2020)
One block for each substance: values may come before it.

Legend:
[1] = test system: GFP-14-3-3β and its binding proteins; test: GFP-14-3-3β co-IP with LC-MS/MS label-free quantification, untreated versus PP1c-treated; design: species or system human
Description: (§1) HeLa Kyoto cells expressing transiently transfected pEGFP(C1)-14-3-3β or pEGFP(C1) control plasmid, were incubated with 20 nM Calyculin A (# 9902 S, Cell Signaling Technology) for 12 min. Cells were washed twice on ice with cold PBS and after addition of 500 µL lysis buffer (100 mM NaCl, 10 mM Tris, 0.1% IGEPAL, 1 mM EDTA, 1 mM EGTA, 20 nM Calyculin A, 1x cOmplete Mini protease inhibitor cocktail (Sigma), 1 mM DTT, 1 mM MnCl2) cells were scraped from plates, lysed by 10 pushes through an injection needle (21 G, BD) and the insoluble fraction was pelleted by centrifugation (10 min, 10^4 rcf, 4 °C). Supernatants were then subjected to incubation with 1 µM recombinant phosphatase or buffer for 1 h at 30 °C. Next, we subjected samples to immunoprecipitation using α-GFP nanobodies covalently coupled to agarose beads (2 h, 4 °C, obtained from the EMBL PEPcore Core Facility). Beads were then washed three times with lysis buffer and samples were eluted in 1x LDS sample buffer (Thermo Fisher Scientific) by heating to 70 °C for 10 min.
(§2) The samples were then reduced with 25 mM dithiothreitol (10 min at 70 °C) and alkylated with 55 mM chloroacetamide (room temperature, 30 min, in the dark). Proteins were run on a precast 4–12% NuPAGE gel (ThermoFisher Scientific) for about 1 cm to concentrate the sample prior to in-gel tryptic digestion, which was performed according to the standard procedures. The peptides obtained were dried to completeness and resuspended in 12 µL of buffer A (0.1% FA), and 5 µL of sample were injected per MS measurement. The experiment was carried out in three independent replicates.
(§3) The samples were analyzed by LC-MS/MS on a Dionex Ultimate 3000 nano-HPLC coupled online to a Fusion Lumos Tribrid mass spectrometer (Thermo Fisher Scientific). Peptides were delivered to a trap column (75 µm × 2 cm, packed in-house with 5 µm C18 resin; Reprosil PUR AQ, Dr. Maisch) and washed using 0.1% FA at a flow rate of 5 µL/min for 10 min. Subsequently, peptides were transferred to an analytical column (75 µm × 45 cm, packed in-house with 3 µm C18 resin; Reprosil Gold) applying a flow rate of 300 nL/min and separated using a 60 min linear gradient from 4% to 32% LC solvent B (0.1% FA, 5% DMSO in ACN) in LC solvent A (0.1% FA in 5% DMSO). The eluate from the analytical column was sprayed via a stainless steel emitter (Thermo Fisher Scientific) at a source voltage of 2.1 kV into the mass spectrometer. The transfer capillary was heated to 275 °C. The Fusion Lumos was operated in positive ionization mode and data-dependent acquisition (DDA), automatically switching between MS1 and MS2 spectrum acquisition. Full scan MS1 spectra were recorded in the Orbitrap from 360 to 1300 m/z at a resolution of 60k (automatic gain control (AGC) target value of 4e5 charges, maximum injection time (maxIT) of 50 ms). Up to 20 peptide precursors were isolated (isolation window, 1.7 m/z; maximum injection time, 25 ms; and AGC value, 1e5), fragmented by high-energy collision-induced dissociation (HCD) using 30% normalized collision energy (NCE), and analyzed at a resolution of 15k in the Orbitrap. Precursor ions that were singly charged, unassigned, or with charge states >6+ were excluded. The dynamic exclusion duration of fragmented precursor ions was 20 s.
(§4) Peptide and protein identification and LFQ were performed using MaxQuant software (version 1.6.1.0)[64] by searching the data against all canonical protein sequences as annotated in the Swissprot reference database (human proteins only, 20193 entries, downloaded 22 March 2016, internally annotated with PFAM domains) using the embedded search engine Andromeda[65]. The MaxQuant search was performed using two variable modifications; oxidation of methionine and N-terminal protein acetylation. Carbamidomethylation on cysteines was specified as a fixed modification. Trypsin (Trypsin/P) was specified as the proteolytic enzyme with up to two allowed missed cleavage sites.

GFP-14-3-3β = GFP-14-3-3β co-IP with LC-MS/MS, untreated GFP-14-3-3β versus GFP control (14-3-3 interactome); assay type: binding, human
Description: as §1, §2, §3, §4

[2] = PP1 vs untreated, LFQ intensities, 3 replicates each
[3] = untreated vs GFP, LFQ intensities, 3 replicates each
[4] = pairwise comparison PP1 vs untreated, student's t-test, 3 replicates each, LC-MS/MS label-free quantification
[5] = pairwise comparison untreated GFP-14-3-3β vs GFP, student's t-test, 3 replicates each, LC-MS/MS label-free quantification
[6] = GFP-14-3-3β co-IP LC-MS/MS, PP1 vs untreated, student's t-test, label-free quantification, 3 replicates each
[7] = GFP-14-3-3β co-IP LC-MS/MS, untreated vs GFP, student's t-test, label-free quantification, 3 replicates each
[8] = log2 difference, pairwise comparison PP1 vs untreated, label-free quantification, 3 replicates each
[9] = log2 difference, pairwise comparison untreated vs GFP, label-free quantification, 3 replicates each
[10] = PP1 vs untreated, LFQ intensities, replicates 1-3
[11] = untreated vs GFP, LFQ intensities, replicates 1-3
[12] = PP1 vs untreated, label-free quantification
[13] = untreated vs GFP, label-free quantification

Substance: TTC27
Difference (log2), PP1 vs untreated [1, 2]: 0.3393 log2
Difference (log2), untreated vs GFP (GFP-14-3-3β; [3]): 0.5169 log2

Substance: TTC28
Difference (log2), PP1 vs untreated [1, 4]: -4.888 log2
Difference (log2), untreated vs GFP (GFP-14-3-3β; [5]): 4.184 log2

Substance: WWC1
Difference (log2), PP1 vs untreated [1, 4]: -3.748 log2
Difference (log2), untreated vs GFP (GFP-14-3-3β; [5]): 3.436 log2

Substance: DENND4A
Difference (log2), PP1 vs untreated [1, 4]: -5.672 log2
Difference (log2), untreated vs GFP (GFP-14-3-3β; [5]): 5.3156 log2

Substance: DHX9
Difference (log2), PP1 vs untreated [1, 6]: -0.3598 log2
Difference (log2), untreated vs GFP (GFP-14-3-3β; [7]): 1.512 log2

Substance: YAP1
Difference (log2), PP1 vs untreated [1, 4]: -2.787 log2
Difference (log2), untreated vs GFP (GFP-14-3-3β; [5]): 8.338 log2

Substance: LMO7
Difference (log2), PP1 vs untreated [1, 4]: -2.202 log2
Difference (log2), untreated vs GFP (GFP-14-3-3β; [5]): 0.9984 log2

Substance: LGALS3
Difference (log2), PP1 vs untreated [1, 10]: -0.9155 log2
Difference (log2), untreated vs GFP (GFP-14-3-3β; [11]): 0.3389 log2

Substance: VDAC1
Difference (log2), PP1 vs untreated [1, 2]: 0.6266 log2
Difference (log2), untreated vs GFP (GFP-14-3-3β; [3]): 1.0866 log2

Substance: GNG12
Difference (log2), PP1 vs untreated [1, 10]: -1.974 log2
Difference (log2), untreated vs GFP (GFP-14-3-3β; [11]): -0.9148 log2

Substance: DNMBP
Difference (log2), PP1 vs untreated [1, 4]: -4.455 log2
Difference (log2), untreated vs GFP (GFP-14-3-3β; [5]): 3.515 log2

Substance: MYO18A
Difference (log2), PP1 vs untreated [1, 4]: -3.467 log2
Difference (log2), untreated vs GFP (GFP-14-3-3β; [5]): 2.435 log2

Substance: SFN
Difference (log2), PP1 vs untreated [1, 4]: -4.908 log2
Difference (GFP-14-3-3β; UntrtedvsGFP, Perseus raw output, LFQ intensity difference): 10.1517
Difference (log2), untreated vs GFP (GFP-14-3-3β; [5]): 10.1517 log2

Substance: ECM29
Difference (log2), PP1 vs untreated [1, 6]: -0.2746 log2
Difference (log2), untreated vs GFP (GFP-14-3-3β; [7]): -0.4278 log2

Substance: TUBB4B
Difference (log2), PP1 vs untreated [1, 6]: -0.5591 log2
Difference (log2), untreated vs GFP (GFP-14-3-3β; [7]): -0.8458 log2

Substance: PHB2
Difference (log2), PP1 vs untreated [1, 12]: 1.222 log2
Difference (log2), untreated vs GFP (GFP-14-3-3β; [13]): 1.117 log2

Substance: PMS2
Difference (log2), PP1 vs untreated [1, 10]: -0.8647 log2
Difference (log2), untreated vs GFP (GFP-14-3-3β; [11]): 0.6772 log2

Substance: FLNA
Difference (log2), PP1 vs untreated [1, 4]: -2.217 log2
Difference (log2), untreated vs GFP (GFP-14-3-3β; [5]): -0.8027 log2

Substance: ATP5B
Difference (log2), PP1 vs untreated [1, 8]: 1.371
Difference (log2), untreated vs GFP (GFP-14-3-3β; [9]): -0.3021

Substance: SEC16A
Difference (log2), PP1 vs untreated [1, 10]: -1.037 log2
Difference (log2), untreated vs GFP (GFP-14-3-3β; [11]): 2.809 log2

Now from value to substance, other results behind:

Difference (log2), PP1 vs untreated [1, 6]: -0.3723 log2
Substance: RAD50
Difference (log2), untreated vs GFP (GFP-14-3-3β; [7]): 0.4724 log2

Difference (log2), PP1 vs untreated [1, 8]: 1.396
Substance: MYO5A
Difference (log2), untreated vs GFP (GFP-14-3-3β; [9]): 0.8351

Difference (log2), PP1 vs untreated [1, 4]: -4.834 log2
Substance: TSC2
Difference (log2), untreated vs GFP (GFP-14-3-3β; [5]): 4.192 log2

Difference (log2), PP1 vs untreated [1, 10]: -1.3 log2
Substance: YWHAE
Difference (log2), untreated vs GFP (GFP-14-3-3β; [11]): 6.648 log2

Difference (log2), PP1 vs untreated [1, 8]: 1.388
Substance: PFKP
Difference (log2), untreated vs GFP (GFP-14-3-3β; [9]): -0.1859

Difference (log2), PP1 vs untreated [1, 6]: -0.3516 log2
Substance: TRIM29
Difference (log2), untreated vs GFP (GFP-14-3-3β; [7]): 0.4899 log2

Difference (log2), PP1 vs untreated [1, 4]: -2.392 log2
Substance: CD44
Difference (log2), untreated vs GFP (GFP-14-3-3β; [5]): 0.8931 log2

Difference (log2), PP1 vs untreated [1, 12]: 0.818 log2
Substance: SOGA1
Difference (log2), untreated vs GFP (GFP-14-3-3β; [13]): -0.02242 log2

Difference (log2), PP1 vs untreated [1, 6]: -0.475 log2
Substance: YWHAB
Difference (log2), untreated vs GFP (GFP-14-3-3β; [7]): 6.723 log2

Difference (log2), PP1 vs untreated [1, 6]: -0.3213 log2
Substance: DDX6
Difference (log2), untreated vs GFP (GFP-14-3-3β; [7]): 1.378 log2

Difference (log2), PP1 vs untreated [1, 2]: 0.6228 log2
Substance: ASCC3
Difference (log2), untreated vs GFP (GFP-14-3-3β; [3]): -0.1721 log2

Difference (log2), PP1 vs untreated ([1]; pairwise comparison PP1 vs untreated): 0.05533 log2
Substance: HNRNPK
Difference (log2), untreated vs GFP (GFP-14-3-3β; pairwise comparison untreated vs GFP): 0.6096 log2

Difference (log2), PP1 vs untreated [1, 2]: 0.7153 log2
Substance: CD109
Difference (log2), untreated vs GFP (GFP-14-3-3β; [3]): -1.476 log2
